Earlier results on three molecules are cited in US20250367228A1, “FORMULATIONS FOR BOOSTING NAD+ USING MULTIPLE BIOLOGICAL PATHWAYS CONCURRENTLY TO OVERCOME ENZYMATIC DEGRADATION AND IMPROVE DOWNSTREAM BENEFITS” (PROHEALTH, priority 2023, published 2025).

Structures are written as SMILES.

The target of one data set is T1, CD38 (Homo sapiens, UniProt P28907).
T1 sequence (P28907 1-300): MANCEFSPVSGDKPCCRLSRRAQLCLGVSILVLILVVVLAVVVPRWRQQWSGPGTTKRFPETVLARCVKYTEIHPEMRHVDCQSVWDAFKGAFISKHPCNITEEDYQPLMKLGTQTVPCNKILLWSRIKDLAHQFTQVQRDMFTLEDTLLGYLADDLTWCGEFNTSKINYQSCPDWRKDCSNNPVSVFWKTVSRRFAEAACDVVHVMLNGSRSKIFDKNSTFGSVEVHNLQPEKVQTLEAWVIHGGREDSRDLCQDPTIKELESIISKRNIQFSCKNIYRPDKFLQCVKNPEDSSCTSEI

Data set [1] relates to NAD+ blood concentrations. Particulars: 1000 mg/day of NR, elderly subjects.

For `O=c1cc(-c2ccc(O)cc2)oc2cc(O)cc(O)c12` [apigenin], the “inhibition of CD38” value on CD38 is recorded as “inhibited”.
Turning to `O=c1c(O)c(-c2ccc(O)c(O)c2)oc2cc(O)cc(O)c12` [quercetin], the “inhibition of CD38” value on CD38 is “inhibited”.
For `NC(=O)c1ccc[n+]([C@@H]2O[C@H](CO)[C@@H](O)[C@H]2O)c1` [NR, Nicotinamide riboside], in data set [1], the “increase of NAD+ blood concentrations” value is given as “two-fold”.
